What was measured:
[1] = behaviour of the polymorph form at relative humidity (storage); type: physicochemical; conditions: at 80% relative humidity
[2] = thermodynamic stability of the polymorph form versus temperature; type: physicochemical; conditions: at temperatures below 200° C.

state of the polymorph form under humidity [1]: remains, dry
thermodynamic stability of the polymorph form [2]: thermodynamically stable
SMILES: CS(=O)(=O)O.Cc1ccc(NC(=O)c2ccc(CN3CCN(C)CC3)cc2)cc1Nc1nc(-c2cccnc2)cs1 [(VI), 4-(4-Methyl-piperazin-1-ylmethyl)-N-[4-methyl-3-(4-pyridin-3-yl-thiazol-2-ylamino)-phenyl]-benzamide methanesulfonate]

From patent US8940894B2, “Aminothiazole compounds as kinase inhibitors and methods of using the same” (AB Science, priority 2007, dated 2015)
